Legend:
green foxtail [1] = assay: Test C postemergence herbicide test; assay type: in vivo, Setaria viridis
Outline: (§1)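 Plants were grown to the 1- to 4-leaf stage (2–18 cm) and then treated postemergence, or grown to the 2-leaf stage for the flooded paddy test. They were held in a greenhouse for 12 to 14 days and then scored by eye against controls, where 0 is no effect and 100 is complete control.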

wild oat = assay: Test C postemergence herbicide test; assay type: in vivo, Avenafatua
Outline: as §1

green foxtail [2] = assay: Test E pre-/postemergence herbicide test; assay type: in vivo, Setaria viridis; conditions: Preemergence
Outline: (§2)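 Ratings from 0 (no effect) to 100 (complete control) were assigned by visual comparison with untreated plants 12 to 14 days after application. Test chemicals, formulated with surfactant in a non-phytotoxic solvent blend, were applied to soil after planting or to foliage of 2–18 cm plants.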

purple nutsedge = assay: Test E pre-/postemergence herbicide test; assay type: in vivo, Cyperus rotundus; conditions: Preemergence
Outline: as §2

mustard = assay: Test E pre-/postemergence herbicide test; assay type: in vivo, Brassica nigra; conditions: Preemergence
Outline: as §2

guineagrass = assay: Test E pre-/postemergence herbicide test; assay type: in vivo, Panicum maximum; conditions: Preemergence
Outline: as §2

common sowthistle = assay: Test E pre-/postemergence herbicide test; assay type: in vivo, Sonchus oleraceous; conditions: Preemergence
Outline: as §2

Russian thistle = assay: Test E pre-/postemergence herbicide test; assay type: in vivo, Salsola kali; conditions: Preemergence
Text: (§3) Seeds of plant species selected from bipinnate beggarticks (Bidens bipinnata L.), hairy beggarticks (Bidens radiata Thuill.), bermudagrass (Cynodon dactylon (L.) Pers.), Surinam grass (Urochloa decumbens (Staph) R. D. Webster, previously named Brachiaria decumbens Stapf), large crabgrass (Digitaria sanguinalis (L.) Scop.), green foxtail (Setaria viridis (L.) P. Beauv.), goosegrass (Eleusine indica (L.) Gaertn.), johnsongrass (Sorghum halepense (L.) Pers.), kochia (Kochia scoparia (L.) Schrad.), pitted morningglory (Ipomoea lacunosa L.), purple nutsedge (Cyperus rotundus L.), common ragweed (Ambrosia elatior L.), mustard (Brassica nigra (L.) W. D. J. Koch), guineagrass (Panicum maximum Jacq.), dallisgrass (Paspalum dilatatum Poir.), barnyardgrass (Echinochloa crus-galli (L). P. Beauv.), southern sandbur (Cenchrus echinatus L.), common sowthistle (Sonchus oleraceous L.), prickly sida (Sida spinosa L.), Italian ryegrass (Lolium multiflorum Lam.), common purslane (Portulaca oleracea L.), broadleaf signalgrass (Brachiaria platyphylla (Griseb.) Nash), common groundsel (Senecio vulgaris L.), common chickweed (Stellaria media (L.) Vill/Cyr.), tropical spiderwort (Commelina benghalensis L.), annual bluegrass (Poa annua L.), downy bromegrass (Bromus tectorum L.), itchgrass (Rottboellia cochinchinensis (L.) L.f.), quackgrass (Elytrigia repens (L.) Nevski), Canada horseweed (Erigeron Canadensis L.), field bindweed (Convolvulus arvensis L.), spotted spurge (Euphorbia maculata L.), common mallow (Malva sylvestris (=s silvestris) L.), and Russian thistle (Salsola kali L. ssp. Ruthenica (Iljin) Soo) were planted and treated preemergence with test chemicals formulated in a non-phytotoxic solvent mixture which included a surfactant.
(§4) At the same time, plants selected from these weed species were treated with postemergence applications of some of the test chemicals formulated in the same manner. Plants ranged in height from 2 to 18 cm (1- to 4-leaf stage) for postemergence treatments. Treated plants and controls were maintained in a greenhouse for 12 to 14 days, after which time all species were compared to controls and visually evaluated. Plant response ratings, summarized in Table E, are based on a scale of 0 to 100 where 0 is no effect and 100 is complete control. A dash (-) response means no test result.

bipinnate beggarticks = assay: Test E pre-/postemergence herbicide test; assay type: in vivo, Bidens bipinnata; conditions: Preemergence
Text: as §3, §4

common groundsel = assay: Test E pre-/postemergence herbicide test; assay type: in vivo, Senecio vulgaris; conditions: Preemergence
Outline: as §2

common chickweed = assay: Test E pre-/postemergence herbicide test; assay type: in vivo, Stellaria media; conditions: Preemergence
Outline: as §2

[3] = Postemergence, 250 g ai/ha, scale 0 to 100, 0 no effect, 100 complete control
[4] = postemergence, 125 g ai/ha, scale 0 to 100
[5] = postemergence, 62 g ai/ha, scale 0 to 100
[6] = 250 g ai/ha, scale 0 (no effect) to 100 (complete control)
[7] = 500 g ai/ha, scale 0 (no effect) to 100 (complete control)

CCN1N=C(C(C)(C)C)CC1C(=O)Nc1cc(C(=O)N(C)C)ccc1F (centres unmarked) [Compound 268, N-[5-[(dimethylamino)carbonyl]-2-fluorophenyl]-3-(1,1-dimethylethyl)-1-ethyl-4,5-dihydro-1H-pyrazole-5-carboxamide]
Plant response rating, Foxtail, Green (green foxtail [1]; [3]): 50
Plant response rating, Foxtail, Green (green foxtail [1]; [4]): 45
Plant response rating, Foxtail, Green (green foxtail [1]; [5]): 40
Plant response rating, Oat, Wild (wild oat; [3]): 65
Plant response rating, Oat, Wild (wild oat; [4]): 35
Plant response rating, Oat, Wild (wild oat; [5]): 20
Plant response rating, Foxtail, Green (green foxtail [2]; 62 g ai/ha, scale 0 to 100): 70
Plant response rating, Foxtail, Green (green foxtail [2]; 125 g ai/ha, scale 0 to 100): 95
Plant response rating, Foxtail, Green (green foxtail [2]; [6]): 100
Plant response rating, Foxtail, Green (green foxtail [2]; [7]): 100
Plant response rating, Nutsedge, Purple (purple nutsedge; 62 g ai/ha, scale 0 to 100): 50
Plant response rating, Nutsedge, Purple (purple nutsedge; 125 g ai/ha, scale 0 to 100): 70
Plant response rating, Nutsedge, Purple (purple nutsedge; [6]): 85
Plant response rating, Nutsedge, Purple (purple nutsedge; [7]): 85
Plant response rating, Black Mustard (mustard; 62 g ai/ha, scale 0 to 100): 90
Plant response rating, Black Mustard (mustard; 125 g ai/ha, scale 0 to 100): 100
Plant response rating, Black Mustard (mustard; [6]): 100
Plant response rating, Black Mustard (mustard; [7]): 100
Plant response rating, Guineagrass (guineagrass; 62 g ai/ha, scale 0 to 100): 70
Plant response rating, Guineagrass (guineagrass; 125 g ai/ha, scale 0 to 100): 85
Plant response rating, Guineagrass (guineagrass; [6]): 100
Plant response rating, Guineagrass (guineagrass; [7]): 100
Plant response rating, Sowthistle (common sowthistle; 62 g ai/ha, scale 0 to 100): 80
Plant response rating, Sowthistle (common sowthistle; 125 g ai/ha, scale 0 to 100): 100
Plant response rating, Sowthistle (common sowthistle; [6]): 100
Plant response rating, Sowthistle (common sowthistle; [7]): 100
Plant response rating, Thistle (Russian thistle; 125 g ai/ha, scale 0 to 100): 60
Plant response rating, Thistle (Russian thistle; [7]): 100

CCc1nn(C(C)C)nc1C(=O)Nc1cccc(C(=O)N2CCCCC2)c1 [Compound 385]
Plant response rating, Beggarticks, Bip. (bipinnate beggarticks; 62 g ai/ha, scale 0 to 100): 0
Plant response rating, Beggarticks, Bip. (bipinnate beggarticks; 125 g ai/ha, scale 0 to 100): 30
Plant response rating, Beggarticks, Bip. (bipinnate beggarticks; [6]): 30
Plant response rating, Foxtail, Green (green foxtail [2]; 62 g ai/ha, scale 0 to 100): 10
Plant response rating, Foxtail, Green (green foxtail [2]; 125 g ai/ha, scale 0 to 100): 30
Plant response rating, Foxtail, Green (green foxtail [2]; [6]): 60
Plant response rating, Black Mustard (mustard; 62 g ai/ha, scale 0 to 100): 0
Plant response rating, Black Mustard (mustard; [6]): 30
Plant response rating, Guineagrass (guineagrass; 125 g ai/ha, scale 0 to 100): 60
Plant response rating, Guineagrass (guineagrass; [6]): 100
Plant response rating, Sowthistle (common sowthistle; 125 g ai/ha, scale 0 to 100): 0
Plant response rating, Sowthistle (common sowthistle; [6]): 60
Plant response rating, Groundsel (common groundsel; 62 g ai/ha, scale 0 to 100): 0
Plant response rating, Groundsel (common groundsel; 125 g ai/ha, scale 0 to 100): 0
Plant response rating, Groundsel (common groundsel; [6]): 60
Plant response rating, Chickweed (common chickweed; 62 g ai/ha, scale 0 to 100): 20
Plant response rating, Chickweed (common chickweed; 125 g ai/ha, scale 0 to 100): 20
Plant response rating, Chickweed (common chickweed; [6]): 60
Plant response rating, Thistle (Russian thistle; 125 g ai/ha, scale 0 to 100): 50

CCc1nn(C(C)C)nc1C(=O)Nc1cccc(C(=O)N(C)CC)c1 [Compound 386]
Plant response rating, Beggarticks, Bip. (bipinnate beggarticks; [6]): 40
Plant response rating, Foxtail, Green (green foxtail [2]; 125 g ai/ha, scale 0 to 100): 60
Plant response rating, Foxtail, Green (green foxtail [2]; [6]): 95
Plant response rating, Black Mustard (mustard; [6]): 70
Plant response rating, Guineagrass (guineagrass; 125 g ai/ha, scale 0 to 100): 80
Plant response rating, Guineagrass (guineagrass; [6]): 100
Plant response rating, Sowthistle (common sowthistle; 125 g ai/ha, scale 0 to 100): 60
Plant response rating, Sowthistle (common sowthistle; [6]): 100
Plant response rating, Groundsel (common groundsel; 125 g ai/ha, scale 0 to 100): 30
Plant response rating, Groundsel (common groundsel; [6]): 50
Plant response rating, Chickweed (common chickweed; 125 g ai/ha, scale 0 to 100): 95
Plant response rating, Chickweed (common chickweed; [6]): 95

From patent publication US20060069132A1, “Azolecarboxamide herbicides” (priority 2004, published 2006)
